The subject of one series is HCC827. Put plainly: Antiproliferative activity against human HCC827 cells assessed as reduction in cell viability after 72 hrs by MTT assay. The format is functional, cell-based. Conditions: HCC827, 72 h. On the technique in general: Formazan colour is commonly taken as a measure of viable cells.
In another series the test system is NCI-H1975. Put plainly: Antiproliferative activity against human NCI-H1975 cells assessed as reduction in cell viability after 72 hrs by MTT assay. The format is functional, cell-based. The following applies: NCI-H1975, 72 h.
The test system of series [1] is NCI-H460. Put plainly: Antiproliferative activity against human NCI-H460 cells assessed as reduction in cell viability after 72 hrs by MTT assay. The format is functional, cell-based. The following applies: NCI-H460, 72 h.
The next series relates to A549. The experiment in a line: Antiproliferative activity against human A549 cells expressing wild type EGFR assessed as reduction in cell viability after 72 hrs by MTT assay. The class given is functional, cell-based. Conditions: A549, 72 h.
Series [2] is described as follows: Antiproliferative activity against human SPCA1 cells expressing wild type EGFR assessed as reduction in cell viability after 72 hrs by MTT assay. The class given is functional, cell-based. Conditions: SPCA1, 72 h.
The test system of a further series is NCI-H1650. Put plainly: Antiproliferative activity against human NCI-H1650 cells expressing EGFR mutant assessed as reduction in cell viability after 72 hrs by MTT assay. The class given is functional, cell-based. The following applies: NCI-H1650, 72 h.
A further series has as its system NCI-H441. The experiment in a line: Antiproliferative activity against human NCI-H441 cells […] assessed as reduction in cell viability after 72 hrs by MTT assay. The following applies: NCI-H441, 72 h. The format is functional, cell-based.
Series [3] in a line: Metabolic stability in human liver microsomes assessed as half life. The format is ADME, Microsome. On the technique in general: Microsomes from liver hold many membrane-bound enzymes, among them those of drug oxidation.
The nature of series [4]: Metabolic stability in human liver microsomes assessed as intrinsic clearance per gram protein. The format is ADME, Microsome.
The test system of another series is L929. Put plainly: Cytotoxicity against mouse L929 cells. The class given is cell-based.
A short description of series [5]: Antitumor activity against mouse C26 cells xenografted in BALB/c mouse assessed as tumor growth inhibition at 50 mg/kg, po administered once daily and measured every two days by caliper method relative to control. The format is functional. Conditions: 48 h, read-out: TGI.
Series [6] deals with NCI-H460. Put plainly: Antitumor activity against human NCI-H460 cells xenografted in nude BABL/c mouse assessed as tumor growth inhibition at 60 mg/kg, po administered once daily and measured every two days by caliper method relative to control. The following applies: 48 h, read-out: TGI. The format is functional. Background: Xenograft models place foreign cells or tissue in a host animal.

Series [7] relates to NCI-H460. Put plainly: Induction of cell cycle arrest in human NCI-H460 cells assessed as accumulation at G0/G1 phase at 1 uM incubated for 24 hrs by propidium iodide staining based flow cytometry (reference value: 53.97 %). The class given is functional.
Series [8] deals with NCI-H460. The experiment in a line: Induction of cell cycle arrest in human NCI-H460 cells assessed as accumulation at G2/M phase at 1 uM incubated for 24 hrs by propidium iodide staining based flow cytometry (reference value: 16.71 %). The class given is functional.
Series [9] concerns NCI-H460. Put plainly: Induction of cell cycle arrest in human NCI-H460 cells assessed as accumulation at S phase at 1 uM incubated for 24 hrs by propidium iodide staining based flow cytometry (reference value: 29.32 %). The format is functional.
The test system of series [10] is NCI-H460. The experiment in a line: Induction of cell cycle arrest in human NCI-H460 cells assessed as accumulation at G0/G1 phase at 5 uM incubated for 24 hrs by propidium iodide staining based flow cytometry (reference value: 53.97 %). The format is functional.
Series [11] concerns NCI-H460. Put plainly: Induction of cell cycle arrest in human NCI-H460 cells assessed as accumulation at G2/M phase at 5 uM incubated for 24 hrs by propidium iodide staining based flow cytometry (reference value: 16.71 %). The format is functional.
Series [12] deals with NCI-H460. Put plainly: Induction of cell cycle arrest in human NCI-H460 cells assessed as accumulation at S phase at 5 uM incubated for 24 hrs by propidium iodide staining based flow cytometry (reference value: 29.32 %). The class given is functional.
Series [13] concerns NCI-H460. Put plainly: Induction of cell cycle arrest in human NCI-H460 cells assessed as accumulation at G0/G1 phase at 10 uM incubated for 24 hrs by propidium iodide staining based flow cytometry (reference value: 53.97 %). The class given is functional.
Series [14] concerns NCI-H460. The experiment in a line: Induction of cell cycle arrest in human NCI-H460 cells assessed as accumulation at G2/M phase at 10 uM incubated for 24 hrs by propidium iodide staining based flow cytometry (reference value: 16.71 %). The format is functional.
The test system of series [15] is NCI-H460. Put plainly: Induction of cell cycle arrest in human NCI-H460 cells assessed as accumulation at S phase at 10 uM incubated for 24 hrs by propidium iodide staining based flow cytometry (reference value: 29.32 %). The class given is functional.
The test system of series [16] is NCI-H460. The experiment in a line: Induction of apoptosis in human NCI-H460 cells assessed as viable cells at 1 uM after 48 hrs by Annexin V-FITC/propidium iodide staining based flow cytometric analysis (reference value: 91.528 %). The following applies: read-out: Activity. The format is functional.
The subject of series [17] is NCI-H460. The experiment in a line: Induction of apoptosis in human NCI-H460 cells assessed as early apoptotic cells at 1 uM after 48 hrs by Annexin V-FITC/propidium iodide staining based flow cytometric analysis (reference value: 3.980 %). The format is functional.
Series [18] concerns NCI-H460. The experiment in a line: Induction of apoptosis in human NCI-H460 cells assessed as late apoptotic cells at 1 uM after 48 hrs by Annexin V-FITC/propidium iodide staining based flow cytometric analysis (reference value: 3.995 %). The format is functional.
Series [19] concerns NCI-H460. Put plainly: Induction of apoptosis in human NCI-H460 cells assessed as necrotic cells at 1 uM after 48 hrs by Annexin V-FITC/propidium iodide staining based flow cytometric analysis (reference value: 0.498 %). The class given is functional.
In series [20] the test system is NCI-H460. Put plainly: Induction of apoptosis in human NCI-H460 cells assessed as viable cells at 2 uM after 48 hrs by Annexin V-FITC/propidium iodide staining based flow cytometric analysis (reference value: 91.528 %). The following applies: read-out: Activity. The format is functional.
Series [21] has as its system NCI-H460. Put plainly: Induction of apoptosis in human NCI-H460 cells assessed as early apoptotic cells at 2 uM after 48 hrs by Annexin V-FITC/propidium iodide staining based flow cytometric analysis (reference value: 3.980 %). The class given is functional.
The subject of series [22] is NCI-H460. The experiment in a line: Induction of apoptosis in human NCI-H460 cells assessed as late apoptotic cells at 2 uM after 48 hrs by Annexin V-FITC/propidium iodide staining based flow cytometric analysis (reference value: 3.995 %). The class given is functional.
Series [23] relates to NCI-H460. Put plainly: Induction of apoptosis in human NCI-H460 cells assessed as necrotic cells at 2 uM after 48 hrs by Annexin V-FITC/propidium iodide staining based flow cytometric analysis (reference value: 0.498 %). The class given is functional.
The test system of series [24] is NCI-H460. Put plainly: Induction of apoptosis in human NCI-H460 cells assessed as viable cells at 5 uM after 48 hrs by Annexin V-FITC/propidium iodide staining based flow cytometric analysis (reference value: 91.528 %). The class given is functional. Conditions: read-out: Activity.
Series [25] deals with NCI-H460. The experiment in a line: Induction of apoptosis in human NCI-H460 cells assessed as early apoptotic cells at 5 uM after 48 hrs by Annexin V-FITC/propidium iodide staining based flow cytometric analysis (reference value: 3.980 %). The class given is functional.
Series [26] deals with NCI-H460. Put plainly: Induction of apoptosis in human NCI-H460 cells assessed as late apoptotic cells at 5 uM after 48 hrs by Annexin V-FITC/propidium iodide staining based flow cytometric analysis (reference value: 3.995 %). The format is functional.
Series [27] deals with NCI-H460. Put plainly: Induction of apoptosis in human NCI-H460 cells assessed as necrotic cells at 5 uM after 48 hrs by Annexin V-FITC/propidium iodide staining based flow cytometric analysis (reference value: 0.498 %). The class given is functional.
For series [28], the system named is NCI-H460. The experiment in a line: Induction of apoptosis in human NCI-H460 cells assessed as viable cells at 10 uM after 48 hrs by Annexin V-FITC/propidium iodide staining based flow cytometric analysis (reference value: 91.528 %). The format is functional. Conditions: read-out: Activity.
For series [29], the system named is NCI-H460. Put plainly: Induction of apoptosis in human NCI-H460 cells assessed as early apoptotic cells at 10 uM after 48 hrs by Annexin V-FITC/propidium iodide staining based flow cytometric analysis (reference value: 3.980 %). The format is functional.
Series [30] relates to NCI-H460. The experiment in a line: Induction of apoptosis in human NCI-H460 cells assessed as late apoptotic cells at 10 uM after 48 hrs by Annexin V-FITC/propidium iodide staining based flow cytometric analysis (reference value: 3.995 %). The format is functional.
Series [31] deals with NCI-H460. The experiment in a line: Induction of apoptosis in human NCI-H460 cells assessed as necrotic cells at 10 uM after 48 hrs by Annexin V-FITC/propidium iodide staining based flow cytometric analysis (reference value: 0.498 %). The class given is functional.
The subject of series [32] is NCI-H460. Put plainly: Antitumor activity against human NCI-H460 cells xenografted in nude BABL/c mouse assessed as tumor growth inhibition at 10 mg/kg, po administered once daily and measured every two days by caliper method relative to control. The class given is functional. Conditions: 48 h, read-out: TGI.

The term IC50 denotes the concentration at which inhibition is half-maximal. Broadly, the half-life is how long it takes for the measured level to halve.

On to `C=CCc1ccc(O)c(-c2cc(CC=C)cc(CN3CCC(N)CC3)c2O)c1`, for which the IC50 in the series on HCC827 turned out to be 10.8 µM; in the series on NCI-H1975 it was 8.68 µM; with NCI-H460 [1], 9.25 µM; in the series on A549 it was 8.31 µM; in series [2], 9.66 µM; in the series with NCI-H1650, 6.46 µM. For the same molecule, the IC50 stood at 7.12 µM with NCI-H441 and 0.83 µM with L929. Besides, in series [3], the half-life stood at 2.1 h. In addition, the CLint in series [4] is 11 mL/min/g. Further, in series [5], the inhibition in vivo at 50 mg/kg worked out at 45.5%. Moreover, in the series with NCI-H460 [6], the inhibition in vivo at 60 mg/kg was found to be 45.2%. Besides, the Activity stood at 55% with NCI-H460 [7]; 22.68% in the series on NCI-H460 [8]; 22.32% in the series on NCI-H460 [9]; 58.76% in the series on NCI-H460 [10]; 18.49% in the series with NCI-H460 [11]; 22.74% in the series with NCI-H460 [12]. For the same molecule, the Activity in the series on NCI-H460 [13] was 65.66%; with NCI-H460 [14], 15.16%; in the series on NCI-H460 [15] it was 19.19%; with NCI-H460 [17], 6.017%; in the series on NCI-H460 [18] it was 4.207%; in the series on NCI-H460 [19], 0.931%. The Activity with NCI-H460 [21] was determined as 6.067%; in the series on NCI-H460 [22], 5.012%; with NCI-H460 [23] it was 1.301%; with NCI-H460 [25], 6.82%; in the series on NCI-H460 [26], 5.72%; in the series on NCI-H460 [27] it was 0.51%. The Activity with NCI-H460 [29] was 19.124%; in the series on NCI-H460 [30] it was 7.246%; in the series on NCI-H460 [31], 0.173%. Also, in the series on NCI-H460 [16], the viability at 1 µM stood at 88.8%. Further, in the series with NCI-H460 [20], the viability at 2 µM stood at 87.6%. The viability at 5 µM in the series with NCI-H460 [24] stood at 86.9%. Further, the viability at 10 µM in the series with NCI-H460 [28] was 73.4%.

As for `CCN(CC)CCCC(C)Nc1ccnc2cc(Cl)ccc12` (stereo not drawn) [CHLOROQUINE PHOSPHATE], the inhibition in vivo at 10 mg/kg in the series with NCI-H460 [32] stood at 8.67%.

For the origin of these results see ChEMBL document CHEMBL4732067, “Synthesis and evaluation of new compounds bearing 3-(4-aminopiperidin-1-yl)methyl magnolol scaffold as anticancer agents for the treatment of non-small cell lung cancer via targeting autophagy” (Eur J Med Chem, 2021).
